Data: ChEMBL document CHEMBL4507319 (2021)

Assays:
[1] = biological target: Serine/threonine-protein kinase 16 (Homo sapiens) (UniProt O75716); settings: Compound concentration 1000.0 nM
[2] = test system: Proto-oncogene tyrosine-protein kinase receptor Ret (Homo sapiens), P07949 [V804L]; settings: Compound concentration 1000.0 nM
[3] = biological target: Receptor-type tyrosine-protein kinase FLT3 (Homo sapiens) (UniProt P36888); settings: Compound concentration 1000.0 nM
[4] = biological target: T1, Ephrin type-B receptor 3 (Homo sapiens) (UniProt P54753); settings: Compound concentration 1000.0 nM
T1 sequence (whole entry): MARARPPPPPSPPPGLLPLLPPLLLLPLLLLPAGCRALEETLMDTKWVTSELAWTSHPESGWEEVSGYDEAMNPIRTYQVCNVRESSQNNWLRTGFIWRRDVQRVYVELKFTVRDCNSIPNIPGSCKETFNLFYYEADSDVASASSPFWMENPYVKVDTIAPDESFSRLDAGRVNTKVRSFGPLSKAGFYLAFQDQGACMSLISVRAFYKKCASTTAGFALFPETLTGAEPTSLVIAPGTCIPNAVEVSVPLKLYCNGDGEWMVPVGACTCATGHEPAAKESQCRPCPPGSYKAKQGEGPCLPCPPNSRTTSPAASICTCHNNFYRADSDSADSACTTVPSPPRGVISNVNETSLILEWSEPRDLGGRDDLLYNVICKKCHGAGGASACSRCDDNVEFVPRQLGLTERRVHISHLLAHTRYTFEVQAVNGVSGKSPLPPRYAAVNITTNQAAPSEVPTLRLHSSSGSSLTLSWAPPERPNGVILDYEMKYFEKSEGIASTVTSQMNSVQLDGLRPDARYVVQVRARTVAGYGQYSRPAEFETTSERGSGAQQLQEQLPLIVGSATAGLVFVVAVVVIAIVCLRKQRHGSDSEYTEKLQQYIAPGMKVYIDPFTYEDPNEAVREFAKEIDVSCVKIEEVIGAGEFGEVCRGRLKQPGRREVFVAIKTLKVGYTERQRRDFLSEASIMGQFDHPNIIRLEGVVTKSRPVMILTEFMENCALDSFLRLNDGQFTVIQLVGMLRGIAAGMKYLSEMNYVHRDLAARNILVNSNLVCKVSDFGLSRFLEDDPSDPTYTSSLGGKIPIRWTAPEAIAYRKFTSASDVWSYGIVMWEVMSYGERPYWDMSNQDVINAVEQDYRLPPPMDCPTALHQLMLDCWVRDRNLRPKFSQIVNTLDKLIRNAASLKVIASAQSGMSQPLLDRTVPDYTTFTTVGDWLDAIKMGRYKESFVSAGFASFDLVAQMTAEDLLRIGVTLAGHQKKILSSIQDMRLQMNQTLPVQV

[5] = biological target: Ribosomal protein S6 kinase beta-1 (Homo sapiens) (UniProt P23443); settings: Compound concentration 1000.0 nM
[6] = test system: Phosphatidylinositol 4,5-bisphosphate 3-kinase catalytic subunit alpha isoform (Homo sapiens), P42336 [H1047L]; settings: Compound concentration 1000.0 nM
Sequence of Phosphatidylinositol 4,5-bisphosphate 3-kinase catalytic subunit alpha isoform (Homo sapiens), P42336 [H1047L] (P42336 whole entry H1047L, canonical isoform): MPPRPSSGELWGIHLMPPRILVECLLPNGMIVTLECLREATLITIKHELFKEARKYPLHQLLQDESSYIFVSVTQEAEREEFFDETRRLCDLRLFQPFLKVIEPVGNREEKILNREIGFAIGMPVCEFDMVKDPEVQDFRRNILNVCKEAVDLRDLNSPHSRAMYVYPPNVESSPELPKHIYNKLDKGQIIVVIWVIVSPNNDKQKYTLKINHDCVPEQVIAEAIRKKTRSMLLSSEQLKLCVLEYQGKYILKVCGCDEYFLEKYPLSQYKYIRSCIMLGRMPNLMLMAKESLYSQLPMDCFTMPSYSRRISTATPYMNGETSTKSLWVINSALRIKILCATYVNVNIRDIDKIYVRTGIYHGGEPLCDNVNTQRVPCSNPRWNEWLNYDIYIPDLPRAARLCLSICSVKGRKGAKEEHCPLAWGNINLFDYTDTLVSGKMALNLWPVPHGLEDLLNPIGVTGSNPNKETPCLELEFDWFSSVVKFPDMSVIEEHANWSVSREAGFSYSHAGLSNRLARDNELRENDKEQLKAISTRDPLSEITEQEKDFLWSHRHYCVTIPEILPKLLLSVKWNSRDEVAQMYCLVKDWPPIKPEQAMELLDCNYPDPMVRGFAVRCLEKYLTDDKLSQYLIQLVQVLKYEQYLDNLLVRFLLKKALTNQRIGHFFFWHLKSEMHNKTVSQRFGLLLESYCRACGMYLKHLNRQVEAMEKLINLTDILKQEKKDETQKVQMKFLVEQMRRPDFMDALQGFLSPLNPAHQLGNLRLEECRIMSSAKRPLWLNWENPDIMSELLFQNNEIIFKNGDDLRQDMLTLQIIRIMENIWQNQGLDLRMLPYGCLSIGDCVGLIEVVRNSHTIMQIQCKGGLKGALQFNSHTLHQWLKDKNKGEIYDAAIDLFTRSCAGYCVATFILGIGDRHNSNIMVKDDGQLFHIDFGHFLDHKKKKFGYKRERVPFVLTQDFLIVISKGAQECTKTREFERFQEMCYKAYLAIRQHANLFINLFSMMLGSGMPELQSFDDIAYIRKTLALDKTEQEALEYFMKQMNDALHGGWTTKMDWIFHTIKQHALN

[7] = biological target: Mitogen-activated protein kinase kinase kinase 12 (Homo sapiens) (UniProt Q12852); settings: Compound concentration 1000.0 nM
[8] = biological target: Mu-type opioid receptor (Homo sapiens) (UniProt P35372); settings: Compound concentration 10.0 uM
Sequence of Mu-type opioid receptor (Homo sapiens) (P35372 whole entry): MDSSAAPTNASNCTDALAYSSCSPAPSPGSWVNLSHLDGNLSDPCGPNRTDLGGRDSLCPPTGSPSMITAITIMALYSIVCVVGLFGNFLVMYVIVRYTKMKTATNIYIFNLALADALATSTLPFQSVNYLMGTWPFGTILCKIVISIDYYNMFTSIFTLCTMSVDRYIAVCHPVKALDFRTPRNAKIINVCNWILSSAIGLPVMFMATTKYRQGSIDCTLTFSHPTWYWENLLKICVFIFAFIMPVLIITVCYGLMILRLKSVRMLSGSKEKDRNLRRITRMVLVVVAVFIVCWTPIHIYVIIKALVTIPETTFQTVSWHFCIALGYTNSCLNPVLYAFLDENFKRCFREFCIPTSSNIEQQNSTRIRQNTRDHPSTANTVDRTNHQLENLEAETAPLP

[9] = biological target: T2, Serine/threonine-protein kinase 17A (Homo sapiens) (UniProt Q9UEE5); settings: Compound concentration 1000.0 nM
T2 sequence (whole entry): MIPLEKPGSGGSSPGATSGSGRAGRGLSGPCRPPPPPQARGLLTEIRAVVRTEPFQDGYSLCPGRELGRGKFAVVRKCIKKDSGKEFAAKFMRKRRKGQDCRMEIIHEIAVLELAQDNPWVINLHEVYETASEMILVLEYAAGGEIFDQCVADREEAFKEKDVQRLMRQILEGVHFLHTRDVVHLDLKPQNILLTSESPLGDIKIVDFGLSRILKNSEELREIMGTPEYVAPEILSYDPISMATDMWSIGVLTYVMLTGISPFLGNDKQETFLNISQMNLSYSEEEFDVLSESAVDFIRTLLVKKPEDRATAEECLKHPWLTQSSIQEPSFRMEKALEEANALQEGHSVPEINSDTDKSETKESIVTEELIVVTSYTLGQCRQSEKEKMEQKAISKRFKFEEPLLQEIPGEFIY

[10] = biological target: Death-associated protein kinase 3 (Homo sapiens) (UniProt O43293); settings: Compound concentration 1000.0 nM
Sequence of Death-associated protein kinase 3 (Homo sapiens) (O43293 whole entry, looked up): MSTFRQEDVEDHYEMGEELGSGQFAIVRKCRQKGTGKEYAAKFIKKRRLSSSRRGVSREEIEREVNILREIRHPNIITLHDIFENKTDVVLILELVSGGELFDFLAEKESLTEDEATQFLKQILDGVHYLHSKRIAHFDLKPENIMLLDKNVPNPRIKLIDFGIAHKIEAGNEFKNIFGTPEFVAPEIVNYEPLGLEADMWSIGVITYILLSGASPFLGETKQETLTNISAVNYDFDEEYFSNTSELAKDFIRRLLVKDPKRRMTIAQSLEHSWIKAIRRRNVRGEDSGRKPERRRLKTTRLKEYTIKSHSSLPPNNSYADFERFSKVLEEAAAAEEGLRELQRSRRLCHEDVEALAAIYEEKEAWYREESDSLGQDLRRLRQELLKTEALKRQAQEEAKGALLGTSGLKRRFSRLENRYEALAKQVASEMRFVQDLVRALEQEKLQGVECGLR

[11] = biological target: Serine/threonine-protein kinase MARK1 (Homo sapiens) (UniProt Q9P0L2); settings: Compound concentration 1000.0 nM
[12] = biological target: T3, Rhodopsin kinase GRK1 (Homo sapiens) (UniProt Q15835); settings: Compound concentration 1000.0 nM
T3 sequence (whole entry): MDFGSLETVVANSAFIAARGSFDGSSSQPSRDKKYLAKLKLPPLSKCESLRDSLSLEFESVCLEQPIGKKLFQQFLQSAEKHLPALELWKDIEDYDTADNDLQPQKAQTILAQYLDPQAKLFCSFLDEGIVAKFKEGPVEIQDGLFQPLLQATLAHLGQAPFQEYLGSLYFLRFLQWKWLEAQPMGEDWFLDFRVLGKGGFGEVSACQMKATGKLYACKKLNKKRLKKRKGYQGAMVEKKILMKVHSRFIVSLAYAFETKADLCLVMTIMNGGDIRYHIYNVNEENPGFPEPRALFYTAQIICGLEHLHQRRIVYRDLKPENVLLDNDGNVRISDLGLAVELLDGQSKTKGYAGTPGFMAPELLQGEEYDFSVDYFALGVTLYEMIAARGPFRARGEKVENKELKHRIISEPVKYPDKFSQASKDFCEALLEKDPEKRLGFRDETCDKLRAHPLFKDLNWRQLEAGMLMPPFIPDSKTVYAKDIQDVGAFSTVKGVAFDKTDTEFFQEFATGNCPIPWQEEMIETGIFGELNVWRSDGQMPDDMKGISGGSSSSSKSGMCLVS

[13] = biological target: Serine/threonine-protein kinase tousled-like 2 (Homo sapiens) (UniProt Q86UE8); settings: Compound concentration 1000.0 nM
Sequence of Serine/threonine-protein kinase tousled-like 2 (Homo sapiens) (Q86UE8 whole entry, looked up, the tested form may be a part): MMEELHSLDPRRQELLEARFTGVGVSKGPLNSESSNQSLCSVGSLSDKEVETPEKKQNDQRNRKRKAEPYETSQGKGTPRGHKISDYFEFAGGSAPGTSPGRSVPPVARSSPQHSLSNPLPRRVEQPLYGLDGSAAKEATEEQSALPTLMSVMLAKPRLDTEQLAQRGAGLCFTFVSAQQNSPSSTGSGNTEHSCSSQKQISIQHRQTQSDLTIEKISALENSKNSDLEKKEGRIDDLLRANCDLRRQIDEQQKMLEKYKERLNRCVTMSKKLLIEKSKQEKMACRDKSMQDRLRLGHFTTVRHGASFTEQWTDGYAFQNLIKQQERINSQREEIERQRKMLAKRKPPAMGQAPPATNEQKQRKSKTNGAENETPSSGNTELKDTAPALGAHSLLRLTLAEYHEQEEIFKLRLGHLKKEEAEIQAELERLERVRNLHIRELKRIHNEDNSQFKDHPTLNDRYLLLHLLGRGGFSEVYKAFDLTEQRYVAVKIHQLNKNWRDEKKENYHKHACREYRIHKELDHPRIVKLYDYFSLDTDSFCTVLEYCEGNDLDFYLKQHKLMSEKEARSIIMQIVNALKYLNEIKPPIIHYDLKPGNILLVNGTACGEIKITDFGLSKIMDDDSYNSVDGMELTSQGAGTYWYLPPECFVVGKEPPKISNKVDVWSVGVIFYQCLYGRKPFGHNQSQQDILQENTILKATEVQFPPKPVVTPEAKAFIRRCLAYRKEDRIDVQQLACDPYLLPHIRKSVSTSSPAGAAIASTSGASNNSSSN

[14] = biological target: Ankyrin repeat and protein kinase domain-containing protein 1 (Homo sapiens) (UniProt Q8NFD2); settings: Compound concentration 1000.0 nM
[15] = biological target: Serine/threonine-protein kinase PknB (Mycobacterium tuberculosis) (UniProt P9WI81); settings: Compound concentration 1000.0 nM
Sequence of Serine/threonine-protein kinase PknB (Mycobacterium tuberculosis) (P9WI81 whole entry): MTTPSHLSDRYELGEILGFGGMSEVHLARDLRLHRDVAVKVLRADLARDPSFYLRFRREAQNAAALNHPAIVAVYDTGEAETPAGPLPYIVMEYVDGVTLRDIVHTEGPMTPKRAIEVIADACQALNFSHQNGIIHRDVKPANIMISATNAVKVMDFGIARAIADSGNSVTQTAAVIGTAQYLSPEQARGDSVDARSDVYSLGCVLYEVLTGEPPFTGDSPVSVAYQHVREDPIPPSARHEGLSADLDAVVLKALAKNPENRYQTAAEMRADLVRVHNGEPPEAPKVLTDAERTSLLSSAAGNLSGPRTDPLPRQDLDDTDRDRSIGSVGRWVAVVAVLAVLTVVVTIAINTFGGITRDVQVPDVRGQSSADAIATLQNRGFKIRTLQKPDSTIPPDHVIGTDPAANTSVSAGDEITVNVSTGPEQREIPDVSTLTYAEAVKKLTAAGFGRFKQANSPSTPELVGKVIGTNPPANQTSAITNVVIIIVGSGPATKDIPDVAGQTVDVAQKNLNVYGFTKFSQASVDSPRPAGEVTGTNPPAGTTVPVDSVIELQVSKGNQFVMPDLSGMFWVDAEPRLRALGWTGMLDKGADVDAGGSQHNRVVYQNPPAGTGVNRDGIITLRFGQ

[16] = biological target: Transient receptor potential cation channel subfamily M member 6 (Homo sapiens) (UniProt Q9BX84); settings: Compound concentration 1000.0 nM
[17] = biological target: Phosphatidylinositol 5-phosphate 4-kinase type-2 beta (Homo sapiens) (UniProt P78356); settings: Compound concentration 1000.0 nM
Sequence of Phosphatidylinositol 5-phosphate 4-kinase type-2 beta (Homo sapiens) (P78356 whole entry): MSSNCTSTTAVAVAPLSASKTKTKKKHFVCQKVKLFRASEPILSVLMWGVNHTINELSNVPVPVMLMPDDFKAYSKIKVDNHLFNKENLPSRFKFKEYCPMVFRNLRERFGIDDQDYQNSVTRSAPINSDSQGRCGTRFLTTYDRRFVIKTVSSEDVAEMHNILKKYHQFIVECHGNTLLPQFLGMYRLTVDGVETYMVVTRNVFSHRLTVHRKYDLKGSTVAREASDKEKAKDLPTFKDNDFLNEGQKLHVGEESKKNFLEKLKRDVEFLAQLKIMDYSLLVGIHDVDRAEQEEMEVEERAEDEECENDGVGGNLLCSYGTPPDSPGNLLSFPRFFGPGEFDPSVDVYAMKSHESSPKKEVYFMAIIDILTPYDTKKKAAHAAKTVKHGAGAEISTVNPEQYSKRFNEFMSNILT

[18] = test system: Epidermal growth factor receptor (Homo sapiens), P00533 [UNDEFINED MUTATION]; settings: Compound concentration 1000.0 nM

Sequence of Receptor-type tyrosine-protein kinase FLT3 (Homo sapiens) (P36888 whole entry): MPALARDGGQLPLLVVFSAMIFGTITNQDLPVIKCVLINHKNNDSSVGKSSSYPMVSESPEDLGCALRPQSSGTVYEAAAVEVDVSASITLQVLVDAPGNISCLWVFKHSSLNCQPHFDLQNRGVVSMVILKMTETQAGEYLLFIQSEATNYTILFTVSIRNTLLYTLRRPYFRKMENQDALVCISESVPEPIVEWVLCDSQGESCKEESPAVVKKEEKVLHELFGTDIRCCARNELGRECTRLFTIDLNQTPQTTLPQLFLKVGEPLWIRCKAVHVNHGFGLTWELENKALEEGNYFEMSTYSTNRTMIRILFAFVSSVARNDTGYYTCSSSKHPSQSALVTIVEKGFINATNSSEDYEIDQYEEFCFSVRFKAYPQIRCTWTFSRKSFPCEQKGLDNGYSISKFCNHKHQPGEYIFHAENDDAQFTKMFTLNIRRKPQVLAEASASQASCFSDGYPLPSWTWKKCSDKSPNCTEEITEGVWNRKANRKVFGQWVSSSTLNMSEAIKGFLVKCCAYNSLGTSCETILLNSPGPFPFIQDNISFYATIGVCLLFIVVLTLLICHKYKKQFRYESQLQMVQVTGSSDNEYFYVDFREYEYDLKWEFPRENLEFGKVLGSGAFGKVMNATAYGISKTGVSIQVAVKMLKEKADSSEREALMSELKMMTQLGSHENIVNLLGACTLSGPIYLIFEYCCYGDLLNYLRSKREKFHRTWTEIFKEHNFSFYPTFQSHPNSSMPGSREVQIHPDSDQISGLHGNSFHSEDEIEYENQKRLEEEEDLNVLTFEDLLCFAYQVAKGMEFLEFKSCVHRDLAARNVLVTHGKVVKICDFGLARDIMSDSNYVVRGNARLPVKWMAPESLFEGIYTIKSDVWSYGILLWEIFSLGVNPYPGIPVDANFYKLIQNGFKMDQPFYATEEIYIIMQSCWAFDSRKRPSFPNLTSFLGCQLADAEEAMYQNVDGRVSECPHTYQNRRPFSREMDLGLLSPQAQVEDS
Sequence of Serine/threonine-protein kinase 16 (Homo sapiens) (O75716 whole entry): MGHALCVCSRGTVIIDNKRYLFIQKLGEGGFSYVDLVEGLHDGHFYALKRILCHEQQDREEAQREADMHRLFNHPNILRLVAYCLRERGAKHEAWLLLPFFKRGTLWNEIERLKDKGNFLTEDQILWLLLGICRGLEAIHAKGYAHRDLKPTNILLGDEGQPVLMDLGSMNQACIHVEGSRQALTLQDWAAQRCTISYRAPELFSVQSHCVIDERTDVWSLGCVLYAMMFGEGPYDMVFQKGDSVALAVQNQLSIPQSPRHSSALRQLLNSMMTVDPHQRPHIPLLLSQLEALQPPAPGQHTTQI

Row | SMILES | residual activity [1] | residual activity [2] | residual activity [3] | residual activity [4] | residual activity [5] | residual activity [6] | residual activity [7] | inhibition [8] | residual activity [9] | residual activity [10] | residual activity [11] | residual activity [12] | residual activity [13] | residual activity [14] | residual activity [15] | residual activity [16] | residual activity [17] | residual activity [18]
1 | CCc1ccccc1C(=O)Nc1n[nH]c2c(C)c(F)c(C3C(C#N)=C(C)N(C)C(C)=C3C#N)cc12 [BAY-3827] | 79% | 25% | 16% | 57% | 80% | 100% | 94% | 30.5% | 89% | 71% | 36% | 43% | 100% | 100% | 85% | 100% | 91% | 29%
2 | CC1=C(C#N)C(c2ccc3c(c2)c(NC(=O)c2ccccc2C)nn3C)C(C#N)=C(C)N1 [BAY-974] | 83% | 100% | 90% | 99% | 74% | 100% | 80% | 13.7% | 82% | 88% | 100% | 88% | 100% | 92% | 97% | 91% | 83% | 78%
